These results are taken from patent publication US11753407B2, “Compounds for treating spinal muscular atrophy” (PTC Therapeutics, Inc., priority 2012, dated 2023).

The test system of data set [1] is SMN2 minigene mRNA (SMN2-A minigene) in HEK293H cells. As to the kind of experiment: SMN2 minigene mRNA splicing RT-qPCR assay in cultured cells. Format: cell-based, human. Conditions: Homo sapiens, HEK293-H; concentration increasing full length SMN2 mRNA 1.5-fold relative to vehicle-treated cells; HEK293H cells with SMN2-A minigene, 24 hours, 7-point concentration data; read-out: EC1.5x for production of full length SMN2 mRNA. In short, it runs like this:
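EC1.5× values derive from a 24 h treatment of SMN2-A minigene HEK293H cells and GAPDH-normalized RT-qPCR of exon 7-included minigene mRNA relative to vehicle-treated cells.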
For orientation: In qPCR the cycle at which signal appears reflects the starting amount.

Data set [2] has as its system Smn protein in SMA patient fibroblast cells (GM03813). As to the kind of experiment: Smn protein assay in cultured cells (SMN HTRF). Format: cell-based, human. Conditions: SMA patient fibroblast cells, 48 hours; for EC1.5x for Smn protein expression: 7-point concentration curve, SMN HTRF, concentration producing 1.5 times Smn protein vs DMSO vehicle control; for maximum fold (Fold) increase of Smn protein: 7-point concentration data, fold relative to vehicle control. In short, it runs like this:
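Cells were cultured 72 h, seeded at 5,000/well and dosed with seven concentrations (3.16-fold apart) for 48 h. HTRF on lysates, read at 665 and 620 nm, gave blank-corrected ΔF values relative to DMSO. Potency is reported as EC1.5×, efficacy as maximal fold Smn increase.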
(In general: Time-resolved FRET reads energy transfer from a long-lived donor to a nearby acceptor.)

As usually defined, the melting point is the temperature of the solid-liquid transition.

`CCc1cc(-c2cc(=O)n3cc(C4CCN(CCO)CC4)ccc3n2)cn2cc(C)nc12` [Compound 699, 2-(8-ethyl-2-methylimidazo[1,2-a]pyridin-6-yl)-7-[1-(2-hydroxyethyl)piperidin-4-yl]-4H-pyrido[1,2-a]pyrimidin-4-one] yielded a melting point of 244 to 247 °C. The EC (1.5-fold increase) in data set [1] was under 0.1 µM. In data set [2], the “EC1.5x for Smn protein expression” value is “**** (an EC1.5x≤0.3 μM is indicated by four stars (****))” and the “maximum fold (Fold) increase of Smn protein” value (shortened to “maximum fold (Fold) increase”) was “***** (a fold increase >1.65 is indicated by five stars (*****))”.

`CCc1cc(-c2cc(=O)n3cc(N4CCN(C)[C@H](C)C4)ccc3n2)cn2cc(C)nc12` [Compound 700, 7-[(3R)-3,4-dimethylpiperazin-1-yl]-2-(8-ethyl-2-methylimidazo[1,2-a]pyridin-6-yl)-4H-pyrido[1,2-a]pyrimidin-4-one] displayed a melting point of 217 to 220 °C. Besides, in data set [1], the EC (1.5-fold increase) was under 0.1 µM. In data set [2], the “EC1.5x for Smn protein expression” value was “**** (an EC1.5x≤0.3 μM is indicated by four stars (****))” and the “maximum fold (Fold) increase” value is “***** (a fold increase >1.65 is indicated by five stars (*****))”.

As for `CCc1cc(-c2cc(=O)n3cc(N4CCN(CC)[C@H](C)C4)ccc3n2)cn2cc(C)nc12` [Compound 701, 2-(8-ethyl-2-methylimidazo[1,2-a]pyridin-6-yl)-7-[(3R)-4-ethyl-3-methylpiperazin-1-yl]-4H-pyrido[1,2-a]pyrimidin-4-one], the melting point lay in the range of 179 to 182 °C. Moreover, the EC (1.5-fold increase) in data set [1] is under 0.1 µM. In data set [2], the “EC1.5x for Smn protein expression” value is on record as “**** (an EC1.5x≤0.3 μM is indicated by four stars (****))” and the “maximum fold (Fold) increase” value is reported as “***** (a fold increase >1.65 is indicated by five stars (*****))”.

With `Cc1cn2nc(-c3cc(=O)n4cc(C5CCN(CCO)CC5)cc(C)c4n3)cc2c(C)n1` [Compound 703, 2-(4,6-dimethylpyrazolo[1,5-a]pyrazin-2-yl)-7-[1-(2-hydroxyethyl)piperidin-4-yl]-9-methyl-4H-pyrido[1,2-a]pyrimidin-4-one], the melting point lay within 224 to 233 °C. In addition, the EC (1.5-fold increase) in data set [1] is under 0.1 µM. Further, in data set [2], the “EC1.5x for Smn protein expression” value is “**** (an EC1.5x≤0.3 μM is indicated by four stars (****))” and the “maximum fold (Fold) increase” value is recorded as “***** (a fold increase >1.65 is indicated by five stars (*****))”.

The compound `Cc1cn2nc(-c3cc(=O)n4cc(C5CCN(C6CCC6)CC5)cc(C)c4n3)cc2c(C)n1` [Compound 704, 7-(1-cyclobutylpiperidin-4-yl)-2-(4,6-dimethylpyrazolo[1,5-a]pyrazin-2-yl)-9-methyl-4H-pyrido[1,2-a]pyrimidin-4-one] had a melting point of 228 to 237 °C. Besides, in data set [1], the EC (1.5-fold increase) was in the range of 0.1 to 0.3 µM. In data set [2], the “EC1.5x for Smn protein expression” value is on record as “**** (an EC1.5x≤0.3 μM is indicated by four stars (****))”; the “maximum fold (Fold) increase” value is “**** (a fold increase between >1.5 and ≤1.65 is indicated by four stars (****))”.

`Cc1cc(C2CCN(C)CC2)cn2c(=O)cc(-c3ccc4nn(C)cc4c3)nc12` [Compound 705, 9-methyl-2-(2-methyl-2H-indazol-5-yl)-7-(1-methylpiperidin-4-yl)-4H-pyrido[1,2-a]pyrimidin-4-one] came in with a melting point of 222 to 227 °C. Besides, the EC (1.5-fold increase) in data set [1] was under 0.1 µM. In data set [2], the “EC1.5x for Smn protein expression” value is listed as “**** (an EC1.5x≤0.3 μM is indicated by four stars (****))” and the “maximum fold (Fold) increase” value is “***** (a fold increase >1.65 is indicated by five stars (*****))”.

Consider `Cc1cn2nc(-c3cc(=O)n4cc(N5CCC(C)(N(C)C)CC5)ccc4n3)cc2c(C)n1` [Compound 706, 7-[4-(dimethylamino)-4-methylpiperidin-1-yl]-2-(4,6-dimethylpyrazolo[1,5-a]pyrazin-2-yl)-4H-pyrido[1,2-a]pyrimidin-4-one], for which the melting point was 237 to 239 °C. Also, the EC (1.5-fold increase) in data set [1] is under 0.1 µM. Further, in data set [2], the “EC1.5x for Smn protein expression” value is “**** (an EC1.5x≤0.3 μM is indicated by four stars (****))” and the “maximum fold (Fold) increase” value is recorded as “***** (a fold increase >1.65 is indicated by five stars (*****))”.

Compound `CCNC1(C)CCN(c2ccc3nc(-c4cc5c(C)nc(C)cn5n4)cc(=O)n3c2)CC1` [Compound 707, 2-(4,6-dimethylpyrazolo[1,5-a]pyrazin-2-yl)-7-[4-(ethylamino)-4-methylpiperidin-1-yl]-4H-pyrido[1,2-a]pyrimidin-4-one] registered a melting point of 187 to 189 °C. Also, in data set [1], the EC (1.5-fold increase) is under 0.1 µM. Besides, in data set [2], the “EC1.5x for Smn protein expression” value is “**** (an EC1.5x≤0.3 μM is indicated by four stars (****))” and the “maximum fold (Fold) increase” value is “***** (a fold increase >1.65 is indicated by five stars (*****))”.

Consider `CCCNC1(C)CCN(c2ccc3nc(-c4cc5c(C)nc(C)cn5n4)cc(=O)n3c2)CC1` [Compound 708, 2-(4,6-dimethylpyrazolo[1,5-a]pyrazin-2-yl)-7-[4-methyl-4-(propylamino)piperidin-1-yl]-4H-pyrido[1,2-a]pyrimidin-4-one], for which the melting point lay in the range of 181 to 183 °C. In addition, the EC (1.5-fold increase) in data set [1] is under 0.1 µM. Moreover, in data set [2], the “EC1.5x for Smn protein expression” value was “**** (an EC1.5x≤0.3 μM is indicated by four stars (****))” and the “maximum fold (Fold) increase” value was “***** (a fold increase >1.65 is indicated by five stars (*****))”.

In the case of `Cc1cn2nc(-c3cc(=O)n4cc(N5CCC(C)(NCCO)CC5)ccc4n3)cc2c(C)n1` [Compound 709, 2-(4,6-dimethylpyrazolo[1,5-a]pyrazin-2-yl)-7-{4-[(2-hydroxyethyl)amino]-4-methylpiperidin-1-yl}-4H-pyrido[1,2-a]pyrimidin-4-one], the melting point fell in the range of 196 to 198 °C. For the same compound, in data set [1], the EC (1.5-fold increase) is under 0.1 µM. Besides, in data set [2], the “EC1.5x for Smn protein expression” value is “**** (an EC1.5x≤0.3 μM is indicated by four stars (****))” and the “maximum fold (Fold) increase” value is reported as “***** (a fold increase >1.65 is indicated by five stars (*****))”.

For `Cc1cc(C2CCN(C3CCC3)CC2)cn2c(=O)cc(-c3ccc4nn(C)cc4c3)nc12` [Compound 710, 7-(1-cyclobutylpiperidin-4-yl)-9-methyl-2-(2-methyl-2H-indazol-5-yl)-4H-pyrido[1,2-a]pyrimidin-4-one], the melting point lay within 232 to 235 °C. For the same compound, in data set [1], the EC (1.5-fold increase) was under 0.1 µM. Further, in data set [2], the “EC1.5x for Smn protein expression” value is listed as “**** (an EC1.5x≤0.3 μM is indicated by four stars (****))” and the “maximum fold (Fold) increase” value is on record as “***** (a fold increase >1.65 is indicated by five stars (*****))”.

`Cc1cc(C2CCN(CCO)CC2)cn2c(=O)cc(-c3ccc4nn(C)cc4c3)nc12` [Compound 711, 7-[1-(2-hydroxyethyl)piperidin-4-yl]-9-methyl-2-(2-methyl-2H-indazol-5-yl)-4H-pyrido[1,2-a]pyrimidin-4-one] registered a melting point of 216 to 222 °C. The EC (1.5-fold increase) in data set [1] is under 0.1 µM. Moreover, in data set [2], the “EC1.5x for Smn protein expression” value is “**** (an EC1.5x≤0.3 μM is indicated by four stars (****))” and the “maximum fold (Fold) increase” value is listed as “***** (a fold increase >1.65 is indicated by five stars (*****))”.

On to `CCCN1CCC(c2cc(C)c3nc(-c4cc5c(C)nc(C)cn5n4)cc(=O)n3c2)CC1` [Compound 712, 2-(4,6-dimethylpyrazolo[1,5-a]pyrazin-2-yl)-9-methyl-7-(1-propylpiperidin-4-yl)-4H-pyrido[1,2-a]pyrimidin-4-one], for which the melting point was 216 to 223 °C. In data set [1], the EC (1.5-fold increase) was under 0.1 µM. Besides, in data set [2], the “EC1.5x for Smn protein expression” value is “**** (an EC1.5x≤0.3 μM is indicated by four stars (****))” and the “maximum fold (Fold) increase” value is “***** (a fold increase >1.65 is indicated by five stars (*****))”.

Compound `Cc1cn2cc(-c3cc(=O)n4cc(N5CCN[C@H](C)C5)ccc4n3)cc(C3CC3)c2n1` [Compound 715, 2-(8-cyclopropyl-2-methylimidazo[1,2-a]pyridin-6-yl)-7-[(3R)-3-methylpiperazin-1-yl]-4H-pyrido[1,2-a]pyrimidin-4-one] yielded a melting point of 246 to 250 °C. In data set [1], the EC (1.5-fold increase) is under 0.1 µM. In data set [2], the “EC1.5x for Smn protein expression” value was “**** (an EC1.5x≤0.3 μM is indicated by four stars (****))” and the “maximum fold (Fold) increase” value is “***** (a fold increase >1.65 is indicated by five stars (*****))”.

As to `Cc1cn2cc(-c3cc(=O)n4cc(N5CCN[C@@H](C)C5)ccc4n3)cc(C3CC3)c2n1` [Compound 716, 2-(8-cyclopropyl-2-methylimidazo[1,2-a]pyridin-6-yl)-7-[(3S)-3-methylpiperazin-1-yl]-4H-pyrido[1,2-a]pyrimidin-4-one], the melting point was in the range of 246 to 250 °C. In addition, the EC (1.5-fold increase) in data set [1] was under 0.1 µM. Moreover, in data set [2], the “EC1.5x for Smn protein expression” value was “*** (an EC1.5× between >0.3 μM and ≤1 μM is indicated by three stars (***))”; the “maximum fold (Fold) increase” value is given as “***** (a fold increase >1.65 is indicated by five stars (*****))”.
